Marks after values point to notes of the source that are not given here.
How the values were obtained:
[1] = tested on: Ehrlich ascites carcinoma (EAC); assay: Serum liver and kidney function tests, EAC-bearing mice; assay type: in vivo; conditions: mean ± SEM
Experimental: (§1) The mice were divided into the following eight groups (10 mice in each group): • Control group: Mice were intraperitoneally injected with a vehicle (2% DMSO + sterile saline) for 12 days. • I, II, and III control groups: Healthy normal mice were intraperitoneally injected with 6, 12, and 18 mg/kg of complex (2), respectively, for 12 days. • EAC group: Mice were intraperitoneally injected by a single dose of 2.5 × 10^6 viable Ehrlich ascites carcinoma (EAC) cells in PBS. In brief, EAC cells were withdrawn from the EAC mouse’s intraperitoneal cavity, washed, and centrifuged three times with sterile saline. Then, the pellets were suspended in sterile PBS and counted by the trypan blue exclusion assay, which confirmed that the viability of the cells was 98%. • I, II, and III treated groups: Firstly, 30 healthy mice were intraperitoneally injected with a single dose of 2.5 × 10^6 viable EAC cells. After one day; the mice were divided into I, II, and III treated groups (10 mice each group), intraperitoneally injected with 6, 12, and 18 mg/kg Ru(III) complex, respectively, for 12 days.
(§2) The animals were monitored for EAC growth by measuring abdominal size. At the end of the experiment all animals were fasted overnight then sacrificed. Serum samples were collected to study the biological parameters such as liver and kidney function as well as antioxidant enzyme activity. Liver samples from each group were frozen immediately in liquid nitrogen for molecular analysis.
(§3) Liver function tests. Serum GPT and GOT activities were measured by the method of Murray with a standard kit. The enzyme activities were estimated by measuring the decrease in absorbance of NADH at 340 nm. Bilirubin concentration was estimated by the colorimetric method of Kaplan et al.. Albumin concentration was measured colorimetrically by the color change of bromocresol from yellow-green to green-blue.
(§4) Kidney function tests. Creatinine was estimated colorimetrically by reacting with alkaline picrate forming a red complex. Urea was hydrolyzed enzymatically into ammonia which reacts with several compounds to form a green complex that can be measured colorimetrically. Uric acid was estimated by the enzymatic method of Schultz.

[2] = Serum liver and kidney function tests, healthy mice; assay type: in vivo; conditions: mean ± SEM
Experimental: as §1, §2, §3, §4

[3] = Cyclic voltammetry; assay type: physicochemical; conditions: 10^−3 M in CH2Cl2/DMSO, 0.1 M (Bu4N)PF6, scan rate 50 mVs^−1
Experimental: Elemental analyses (C, H, N) were performed by the Microanalysis unit in the Department of Chemistry at Simon Fraser University. Infrared spectra (FTIR) were performed on a JASCO 4100 FTIR spectrophotometer in the 4000–400 cm^−1 range using a KBr disc. NMR (^1H and ^13C) spectra were recorded in DMSO-d6 solvent using a Bruker 400 MHz instrument. The 2D NMR analysis (^1H–^1H COSY) was performed on a Jeol 500 MHz NMR, at Mansoura University. ESI/APCI HRMS data were acquired on a Thermo Scientific Exactive Plus Orbitrap mass spectrometer. Electronic spectra (in DMSO, 200–900 nm) were measured on a JASCO 630 V spectrophotometer. Emission spectra of the complexes were measured on a Jenway model 6285 spectrofluorimeter for excitation and emission spectra, 200–700 nm. The magnetic susceptibility of the complexes was measured on a Johnson Matthey magnetic susceptibility balance. […] A microplate reader (StatFax-2100, Awareness Technology, Inc., Palm City, FA, USA), Attune flow cytometer (Applied Biosystems, Foster City, CA, USA), Quawell nanodrop Q5000 (San Jose, CA, USA), StepOnePlus real time PCR system (Applied Biosystems, Foster City, CA, USA), and CO2 incubator (NuAire In-Vitro Cell, Plymouth, MN, USA) were used in biological studies.

[4] = Solution stability by UV-Vis spectroscopy; assay type: physicochemical; conditions: 4% DMSO, 96% PBS, pH 7.4, over 24 h
Experimental: Stability studies of complexes (1) and (2) were carried out by UV-Vis spectroscopy in the 200–900 nm range. […] The electronic spectra for the solutions were measured over 24 h.

[5] = tested on: SOD, GSH, CAT, TAC; assay: Oxidative stress markers in serum of EAC-bearing mice; assay type: in vivo
Experimental: as §1, §2
The SOD activity in serum samples was evaluated as described by Dechatelet et al.. GSH was assayed in serum samples by detection of a yellow colored product following a reaction with 5,5’-dithiobis(2-nitrobenzoic acid) (DTNB). The catalase activity was estimated according to Aebi. Total antioxidant capacity (TAC) was determined by the method of Koracevic et al..

[6] = II treated 12 mg/kg i.p. 12 days
[7] = III treated 18 mg/kg i.p. 12 days
[8] = II control 12 mg/kg i.p. 12 days
[9] = III control 18 mg/kg i.p. 12 days
[10] = three treated groups vs untreated EAC group

**Q.** Which results are given for CS(C)=O.Nc1ccccc1-c1nc2ccccc2[nH]1.O.[Cl][Ru]([Cl])[Cl] [(2), [Ru(III)Cl3(DMSO)(Hapbim)]·H2O]?
**A.** Albumin ([1]; I treated 6 mg/kg i.p. 12 days): 0.9 ± 0.03 g/dL; Bilirubin ([1]; I treated 6 mg/kg i.p. 12 days): 0.18 ± 0.03 mg/dL; Creatinine ([1]; I treated 6 mg/kg i.p. 12 days): 0.7 ± 0.01 mg/dL; GOT ([1]; I treated 6 mg/kg i.p. 12 days): 248 ± 15.6 ^a U/L; GPT ([1]; I treated 6 mg/kg i.p. 12 days): 15.2 ± 0.7 U/L; Urea ([1]; I treated 6 mg/kg i.p. 12 days): 34.5 ± 0.4 mg/dL; Uric Acid ([1]; I treated 6 mg/kg i.p. 12 days): 2.6 ± 0.1 mg/dL; Albumin [1, 6]: 2.7 ± 0.3 g/dL; Bilirubin [1, 6]: 0.2 ± 0.03 mg/dL; Creatinine [1, 6]: 0.7 ± 0.1 mg/dL; GOT [1, 6]: 179 ± 10.8 U/L; GPT [1, 6]: 17.8 ± 0.6 U/L; Urea [1, 6]: 34.2 ± 0.6 mg/dL; Uric Acid [1, 6]: 2.7 ± 0.1 mg/dL; Albumin [1, 7]: 2.6 ± 0.1 g/dL; Bilirubin [1, 7]: 0.18 ± 0.02 mg/dL; Creatinine [1, 7]: 1 ± 0.1 ^a mg/dL; GOT [1, 7]: 145 ± 39.3 U/L; GPT [1, 7]: 31.9 ± 7.8 U/L; Urea [1, 7]: 33.3 ± 1.2 mg/dL; Uric Acid [1, 7]: 2.8 ± 0.1 mg/dL; Albumin ([2]; I control 6 mg/kg i.p. 12 days): 2.3 ± 0.1 g/dL; Bilirubin ([2]; I control 6 mg/kg i.p. 12 days): 0.15 ±0.02 ^b mg/dL; Creatinine ([2]; I control 6 mg/kg i.p. 12 days): 0.37 ±0.1 ^b mg/dL; GOT ([2]; I control 6 mg/kg i.p. 12 days): 41.8 ± 2.9 ^b U/L; GPT ([2]; I control 6 mg/kg i.p. 12 days): 15.6 ± 1.6 ^b U/L; Urea ([2]; I control 6 mg/kg i.p. 12 days): 33.5 ± 0.7 ^b mg/dL; Uric Acid ([2]; I control 6 mg/kg i.p. 12 days): 2.9 ± 0.1 ^b mg/dL; Albumin [2, 8]: 2.7 ± 0.1 ^b g/dL; Bilirubin [2, 8]: 0.13 ± 0.02 ^b mg/dL; Creatinine [2, 8]: 0.7 ± 0.02 mg/dL; GOT [2, 8]: 54.9 ± 2.2 U/L; GPT [2, 8]: 17.2 ± 0.5 ^b U/L; Urea [2, 8]: 31.7 ± 1.2 ^b mg/dL; Uric Acid [2, 8]: 2.97 ± 0.1 ^b mg/dL; Albumin [2, 9]: 2.3 ± 0.1 g/dL; Bilirubin [2, 9]: 0.26 ± 0.02 mg/dL; Creatinine [2, 9]: 0.75 ± 0.02 mg/dL; GOT [2, 9]: 68.8 ± 3.6 U/L; GPT [2, 9]: 19.6 ± 0.3 U/L; Urea [2, 9]: 36.7 ± 1.6 ^b mg/dL; Uric Acid [2, 9]: 2.77 ± 0.1 ^b mg/dL; E1/2 (Ru(II)/Ru(III) redox couple) [3]: −295 mV; solution stability (UV-Vis spectral change) [4]: changes in absorption bands near 288, 326, and 690 nm after 1 h; SOD levels ([5]; I (6 mg/kg), II (12 mg/kg), III (18 mg/kg) treated groups vs untreated EAC group): elevated; CAT levels [5, 10]: increased; GSH levels [5, 10]: increased; total antioxidant capacity (TAC) ([5]; three treated groups vs untreated EAC group, p < 0.0001): significantly increased

Source: publication PMC7570852, “Ruthenium(II)/(III) DMSO-Based Complexes of 2-Aminophenyl Benzimidazole with In Vitro and In Vivo Anticancer Activity” (Molecules, 2020)
